Experimental data: patent publication US9676771B2, “Compounds for inhibiting drug-resistant strains of HIV-1 integrase” (priority 2013, dated 2017)
Where two headings read alike, the source gives them in different places.

How the values were obtained:
HIV-1 integrase = HIV-1 integrase (Human immunodeficiency virus type 1 group M subtype B, UniProt P12497); experiment: biochemical; assay type: biochemical
Description: In Vitro Integrase Assay.
Integrase reactions were carried out by adding drugs or an equivalent volume of 100% dimethyl sulfoxide (DMSO; used as the drug solvent) to a mixture of 20 nM DNA and 400 nM integrase in 50 mM morpholinepropanesulfonic acid (pH 7.2), 7.5 mM MgCl2, and 14 mM 2-mercaptoethanol. Reactions were performed at 37° C. for 2 h and quenched by the addition of an equal volume of loading buffer (formamide containing 1% sodium dodecyl sulfate, 0.25% bromophenol blue, and xylene cyanol). […] Dried gels were visualized using a Typhoon 8600 (GE Healthcare, Piscataway, N.J.). Densitometric analyses were performed using ImageQuant 5.1 software from GE Healthcare.

in vitro = assay type: cell-based, human; settings: human, 50% reduction in the level of ATP in HOS cells
Description: Cellular Cytotoxicity Assay.
On the day of the screen, cells were treated with compounds at the appropriate concentration range chosen and incubated at 37° C. for 48 hrs. Cytotoxicity was measured by monitoring ATP levels via a luciferase reporter assay. Cells were lysed in 50 μL cell lysis buffer (PerkinElmer, Waltham, Mass.) and shaken at 700 rpm at room temperature for 5 mins After the addition of 50 μL of ATPlite buffer (PerkinElmer) directly onto the lysed cells and shaking at 700 rpm at room temperature for 5 mins, ATP levels were monitored by measuring luciferase activity using a microplate reader. Activity was normalized to cytotoxicity in the absence of target compounds. KaleidaGraph (Synergy Software, Reading, Pa.) was used to perform regression analysis on the data. CC50 values were determined from the fit model.

[1] = test system: HIV-1 constructs containing wild-type IN; experiment: microbe, parasite or virus in culture; assay type: cell-based; settings: for EC50: Human immunodeficiency virus 1, WT IN, read-out: EC50 (nM, WT)
Text: (§1) Single-Round HIV-1 Infectivity Assay.
(§2) Human embryonyl kidney cell culture cell line 293 was acquired from the American type Culture Collection (ATCC).
(§3) The virus-containing supernatants were then harvested, clarified by low-speed centrifugation, filtrated, and diluted for preparation in infection assays. […] Activity was normalized to infectivity in the absence of target compounds. KaleidaGraph (Synergy Software, Reading, Pa.) was used to perform regression analysis on the data. EC50 values were determined from the fit model.

[2] = test system: HIV-1 constructs containing mutant IN Y143R; experiment: microbe, parasite or virus in culture; assay type: cell-based; settings: Human immunodeficiency virus 1
Text: as §1, §2, §3
(§4) pNLNgoMIVR^−ΔEnv.LUC has been described previously (Zhao et al. 2008). The integrase codon reading frame was removed from pNLNgoMIVR^−ΔEnv LUC (between KpnI and SalI sites) and placed between the KpnI and SalI sites of pBluescript II KS+. Using that construct as the wild-type template, we prepared the following HIV-1 Integrase-resistant mutants via the QuikChange II XL (Stratagene, La Jolla, Calif.) site-directed mutagenesis protocol: H51Y, T66I, E92Q, G118R, Y143R, Q148H, Q148K, N155H, R263K, G140S+Q148H, G140A+Q148K, E138K+Q148K, and H51Y+R263K. The following sense with cognate antisense (not shown) oligonucleotides (Integrated DNA Technologies, Coralville, Iowa) were used in the mutagenesis: H51Y, 5′-[…]-3; T66I, 5′-[…]-3′; E92Q, 5′-[…]-3′; G118R, 5′-[…]-3′; E138K, 5′-[…]-3; G140A, 5′-[…]-3; G140S, 5′-[…]-3′; Y143R, 5′-[…]-3′; Q148H, 5′-[…]-3′; Q148K, 5′-[…]-3; N155H, 5′-[…]-3′; R263K 5′-[…]-3′. The double mutation G140S+Q148H was constructed by using the previously generated Q148H mutant and the appropriate oligonucleotide for the 2nd mutation, G140S. The double mutation G140A+Q148K was made by using the Q148K mutant and the appropriate oligonucleotide for the 2nd mutation, G140A. The double mutation E138K+Q148K was made by using the Q148K mutant and the appropriate oligonucleotide for the 2nd mutation, E138K. The double mutation H51Y+R263K was constructed by using the previously generated H51Y mutant and the appropriate oligonucleotides for the 2nd mutation, R263K. The DNA sequence of each construct was verified independently by DNA sequence determination. […] These DNA sequences were additionally checked independently by DNA sequence determination.

[3] = test system: HIV-1 constructs containing mutant IN N155H; experiment: microbe, parasite or virus in culture; assay type: cell-based; settings: Human immunodeficiency virus 1
Text: as §1, §2, §3, §4

[4] = Table 4, 3′-processing, read-out: IC50 (3^+-Processing)
[5] = Table 4, strand transfer, read-out: IC50 (Strand Transfer)
[6] = Table 3, read-out: EC50 (nM, IN Mutants) Y143R
[7] = Table 5, read-out: EC50 (nM, IN Mutants) Y143R
[8] = Table 3, read-out: EC50 (nM, IN Mutants) N155H
[9] = Table 1, 3′-processing, read-out: IC50 Values 3′-Processing
[10] = Table 1, strand transfer, read-out: IC50 Values Strand transfer

Row | SMILES | IC50 (HIV-1 integrase; [4]) | IC50 (HIV-1 integrase; [5]) | CC50 (in vitro; Table 3) | EC50 ([1]; Table 3) | Si (selectivity index) ([1]; Table 3, ratio of CC50 to EC50) | EC50 [2, 6] | EC50 [3, 8] | also measured
1 | O=C(NCc1ccc(F)cc1F)c1c(Nc2ccc(-c3ccccc3)cc2)c2cccnc2n(O)c1=O [XZ385, 4-([1,1′-biphenyl]-4-ylamino)-N-(2,4-difluorobenzyl)-1-hydroxy-2-oxo-1,2-dihydro-1,8-naphthyridine-3-carboxamide] | 52 ± 5 µM | 0.34 ± 0.08 µM | > 250000 nM | 372 ± 63 nM | >673 | 361 ± 84 nM |  | 
2 | Nc1c(C(=O)NCc2ccc(F)cc2F)c(=O)n(O)c2ncc(CCCC3CCCCC3)cc12 [XZ428, 4-Amino-6-(3-cyclohexylpropyl)-N-(2,4-difluorobenzyl)-1-hydroxy-2-oxo-1,2-dihydro-1,8-naphthyridine-3-carboxamide] |  |  |  |  |  |  |  | IC50 (HIV-1 integrase; Table 7, 3′-processing, read-out: IC50 (μM) 3′-P): 289 ± 49 µM; IC50 (HIV-1 integrase; Table 7, strand transfer, read-out: IC50 (μM) ST): 3.28 ± 0.468 µM; CC50 (in vitro; Table 8): 27400 nM; EC50 ([1]; Table 8): 53.4 nM; EC50 ([3]; Table 8, read-out: EC50 (nM, IN mutants) N155H): 146 nM; EC50 ([2]; Table 8, read-out: EC50 (nM, IN mutants) Y143R): 112 nM
3 | COc1ccc2c(O)c(C(=O)NCc3ccc(F)cc3F)c(=O)n(O)c2n1 [XZ405, N-(2,4-difluorobenzyl)-1,4-dihydroxy-7-methoxy-2-oxo-1,2-dihydro-1,8-naphthyridine-3-carboxamide] | 32 ± 4 µM | 0.033 ± 0.005 µM |  |  |  |  |  | CC50 (in vitro; Table 5): 12100 ± 4600 nM; EC50 ([1]; Table 5): 186 ± 23.2 nM; SI ([1]; Table 5, ratio of CC50 to EC50): 65; EC50 [2, 7]: 215 ± 31 nM
4 | Nc1ccc(-c2ccc(Nc3c(C(=O)NCc4ccc(F)cc4F)c(=O)n(O)c4ncccc34)cc2)cc1 [XZ387, 4-((4′-amino-[1,1′-biphenyl]-4-yl)amino)-N-(2,4-difluorobenzyl)-1-hydroxy-2-oxo-1,2-dihydro-1,8-naphthyridine-3-carboxamide] | 80 ± 11 µM | 0.13 ± 0.02 µM | > 250000 nM | 6.3 ± 2.4 nM | >25,000 | 102 ± 1.4 nM | 423 ± 168 nM | 
5 | O=C(NCc1ccc(F)cc1F)c1c(Nc2ccc3c(c2)Cc2ccccc2-3)c2cccnc2n(O)c1=O [XZ386, 4-((9H-fluoren-2-yl)amino)-N-(2,4-difluorobenzyl)-1-hydroxy-2-oxo-1,2-dihydro-1,8-naphthyridine-3-carboxamide] | 46 ± 8 µM | 0.84 ± 0.21 µM | > 250000 nM | 171 ± 56.8 nM | >1,462 | 448 ± 28.1 nM |  | 
6 | O=C(NCc1ccc(F)c(F)c1)c1cc2cccnc2n(O)c1=O [XZ392, N-(3,4-difluorobenzyl)-1-hydroxy-2-oxo-1,2-dihydro-1,8-naphthyridine-3-carboxamide] |  |  | > 250000 nM | 61.6 ± 13.8 nM |  | 39.7 ± 12.5 nM | 2200 ± 61 nM | IC50 (HIV-1 integrase; [9]): 13.6 ± 1.8 µM; IC50 (HIV-1 integrase; [10]): 0.017 ± 0.003 µM; Si (selectivity index) [1]: >4,058
7 | COC(=O)CNc1c(C(=O)NCc2ccc(F)cc2F)c(=O)n(O)c2nc(OC)ccc12 [XZ407, methyl 2-((3-((2,4-difluorobenzyl)carbamoyl)-1-hydroxy-7-methoxy-2-oxo-1,2-dihydro-1,8-naphthyridin-4-yl)amino)acetate] | 20 ± 2 µM | 0.042 ± 0.005 µM |  |  |  |  |  | CC50 (in vitro; Table 5): 11700 ± 3100 nM; EC50 ([1]; Table 5): 32 ± 13 nM; SI ([1]; Table 5, ratio of CC50 to EC50): 366; EC50 ([3]; Table 5, read-out: EC50 (nM, IN Mutants) N155H): 31300 ± 320 nM; EC50 [2, 7]: 51.5 ± 12.6 nM
8 | O=C(NCc1ccc(F)c(Cl)c1)c1cc2cccnc2n(O)c1=O [XZ391, N-(3-chloro-4-fluorobenzyl)-1-hydroxy-2-oxo-1,2-dihydro-1,8-naphthyridine-3-carboxamide] |  |  | > 250000 nM | 37.5 ± 14.5 nM |  | 33.9 ± 5.5 nM | 90.3 ± 5.6 nM | IC50 (HIV-1 integrase; [9]): 9.4 ± 1.5 µM; IC50 (HIV-1 integrase; [10]): 0.014 ± 0.003 µM; Si (selectivity index) [1]: >6,667
9 | CCOC(=O)[C@@H]1CCCN1c1c(C(=O)NCc2ccc(F)cc2F)c(=O)n(O)c2ncccc12 [XZ404, (S)-ethyl 1-(3-((2,4-difluorobenzyl)carbamoyl)-1-hydroxy-2-oxo-1,2-dihydro-1,8-naphthyridin-4-yl)pyrrolidine-2-carboxylate] | 86 ± 6 µM | 0.31 ± 0.04 µM | 18200 ± 7100 nM | 590 ± 71.8 nM | 31 | 1660 ± 920 nM |  | 
10 | O=C(NCc1ccc(F)cc1)c1cc2cccnc2n(O)c1=O [XZ393, N-(4-fluorobenzyl)-1-hydroxy-2-oxo-1,2-dihydro-1,8-naphthyridine-3-carboxamide] |  |  | > 250000 nM | 25.1 ± 9.4 nM | >9,960 | 24.1 ± 5.3 nM | 268 ± 89 nM | IC50 (HIV-1 integrase; [9]): 8.9 ± 1 µM; IC50 (HIV-1 integrase; [10]): 0.016 ± 0.003 µM
11 | COC(=O)[C@H](Nc1c(C(=O)NCc2ccc(F)cc2F)c(=O)n(O)c2ncccc12)c1ccccc1 [XZ397, (R)-methyl 2-((3-((2,4-difluorobenzyl)carbamoyl)-1-hydroxy-2-oxo-1,2-dihydro-1,8-naphthyridin-4-yl)amino)-2-phenylacetate] |  |  | > 250000 nM | 7.4 ± 3.3 nM |  |  | 21.6 ± 3.7 nM | 
12 | N#Cc1ccc(-c2ccc(Nc3c(C(=O)NCc4ccc(F)cc4F)c(=O)n(O)c4ncccc34)cc2)cc1 [XZ388, 4-((4′-cyano-[1,1′-biphenyl]-4-yl)amino)-N-(2,4-difluorobenzyl)-1-hydroxy-2-oxo-1,2-dihydro-1,8-naphthyridine-3-carboxamide] | 70 ± 7 µM | 0.13 ± 0.03 µM | > 250000 nM | 123 ± 20.7 nM | >2,033 | 346 ± 38.3 nM |  | 
